Columns and labels:
[1] = system: Mycobacterium tuberculosis Erdman (autoluminescent); test: AUC25, normalised area under dose response up to IC25 (three-drug combination) (fraction (0-1)); higher = more potent at low dose
Method: (§1)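 DiaMOND equipotent three-drug combination dose responses (10 doses, 1.5- or 2-fold spacing, centred on IC90) against autoluminescent M. tuberculosis Erdman in 8 in vitro models. Read-out is OD600, or luminescence for the intracellular and dormancy models, normalised to untreated wells. Hill-fit Einf, AUC25 and GRinf are potency metrics; FIC50 and FIC90 are total Loewe fractional inhibitory concentrations as log2 (negative = synergy).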

[2] = system: Mycobacterium tuberculosis Erdman (autoluminescent); test: total FIC50 (Loewe) at 50% inhibition, three-drug combination (log2); higher = more antagonistic
Method: as §1

[3] = system: Mycobacterium tuberculosis Erdman (autoluminescent); test: GRinf, maximum normalised growth rate inhibition (three-drug combination) (unitless (-1 to 1)); higher = less effect (negative = killing)
Method: as §1

[4] = system: Mycobacterium tuberculosis Erdman (autoluminescent); test: total FIC90 (Loewe) at 90% inhibition, three-drug combination (log2); higher = more antagonistic
Method: as §1

[5] = system: Mycobacterium tuberculosis Erdman (autoluminescent); test: Einf, fitted maximum growth inhibition of three-drug combination (fraction); higher = stronger maximal inhibition
Method: as §1

CC(C)/N=c1\cc2n(-c3ccc(Cl)cc3)c3ccccc3nc-2cc1Nc1ccc(Cl)cc1 [clofazimine] + O=[N+]([O-])c1cn2c(n1)OC[C@@H](OCc1ccc(OC(F)(F)F)cc1)C2 [pretomanid] + CO[C@H]1/C=C/O[C@@]2(C)Oc3c(C)c(O)c4c(O)c(c(/C=N/N5CCN(C6CCCC6)CC5)c(O)c4c3C2=O)NC(=O)/C(C)=C\C=C\[C@H](C)[C@H](O)[C@@H](C)[C@@H](O)[C@@H](C)[C@H](OC(C)=O)[C@@H]1C [rifapentine]
Details	AUC25, [1]	Einf, [5]	GRinf, [3]	total FIC50, [2]	total FIC90, [4]
in vitro model: acidic pH 5.7, time point: constant (~7 days, model-specific)	0.103	0.899	-0.186	0.105	–
in vitro model: acidic pH 5.7, time point: terminal (~4-5 doublings, model-specific)	0.0882	0.993	-0.236	0.264	0.423
in vitro model: intracellular J774, time point: constant = terminal	–	0.989	-0.655	–	-0.198

Details	AUC25, [1]	Einf, [5]	GRinf, [3]	total FIC50, [2]	total FIC90, [4]
in vitro model: butyrate, time point: constant (~7 days, model-specific)	0.108	0.944	-0.17	0.542	0.896
in vitro model: butyrate, time point: terminal (~4-5 doublings, model-specific)	0.0902	0.978	-0.146	0.502	0.795
in vitro model: cholesterol 0.05 mM, time point: constant (~7 days, model-specific)	0.125	0.719	-0.154	1.34	–
in vitro model: cholesterol 0.05 mM, time point: terminal (~4-5 doublings, model-specific)	0.1	0.913	-0.114	1.34	1.38
in vitro model: cholesterol-high 0.2 mM, time point: constant (~7 days, model-specific)	0.101	0.93	-0.434	1.29	2.04
in vitro model: cholesterol-high 0.2 mM, time point: terminal (~4-5 doublings, model-specific)	0.104	1	-0.886	1.49	1.76
in vitro model: dormancy (butyrate + nitrate, low O2), time point: constant (~7 days, model-specific)	0.0611	0.948	-0.0911	0.0191	-1.71
in vitro model: dormancy (butyrate + nitrate, low O2), time point: terminal (~4-5 doublings, model-specific)	0.0501	0.997	-0.374	-0.0775	-0.279
in vitro model: standard 7H9 glycerol, time point: constant = terminal	0.12	0.954	-0.0887	-0.289	1.7
in vitro model: valerate, time point: constant (~7 days, model-specific)	0.155	0.893	-0.158	1.22	–
in vitro model: valerate, time point: terminal (~4-5 doublings, model-specific)	0.106	0.953	0.0119	0.552	1.7

CC(C)/N=c1\cc2n(-c3ccc(Cl)cc3)c3ccccc3nc-2cc1Nc1ccc(Cl)cc1 [clofazimine] + O=[N+]([O-])c1cn2c(n1)OC[C@@H](OCc1ccc(OC(F)(F)F)cc1)C2 [pretomanid] + CO[C@H]1/C=C/O[C@@]2(C)Oc3c(C)c(O)c4c(O)c(c(/C=N/N5CCN(C)CC5)c(O)c4c3C2=O)NC(=O)/C(C)=C\C=C\[C@H](C)[C@H](O)[C@@H](C)[C@@H](O)[C@@H](C)[C@H](OC(C)=O)[C@@H]1C [rifampicin]
Details	AUC25, [1]	Einf, [5]	GRinf, [3]	total FIC50, [2]	total FIC90, [4]
in vitro model: acidic pH 5.7, time point: constant (~7 days, model-specific)	0.113	0.916	-0.179	0.218	–
in vitro model: acidic pH 5.7, time point: terminal (~4-5 doublings, model-specific)	0.073	0.989	-0.161	0.575	0.276
in vitro model: intracellular J774, time point: constant = terminal	–	0.992	-0.685	–	-0.529

Details	AUC25, [1]	Einf, [5]	GRinf, [3]	total FIC50, [2]	total FIC90, [4]
in vitro model: butyrate, time point: constant (~7 days, model-specific)	0.104	0.936	-0.134	0.432	0.0534
in vitro model: butyrate, time point: terminal (~4-5 doublings, model-specific)	0.0947	0.977	-0.128	0.197	0.399
in vitro model: cholesterol 0.05 mM, time point: constant (~7 days, model-specific)	0.124	0.696	-0.174	1.03	–
in vitro model: cholesterol 0.05 mM, time point: terminal (~4-5 doublings, model-specific)	0.0924	0.844	0.0526	1.18	0.826
in vitro model: cholesterol-high 0.2 mM, time point: constant (~7 days, model-specific)	0.0944	0.891	-0.242	1.29	1.16
in vitro model: cholesterol-high 0.2 mM, time point: terminal (~4-5 doublings, model-specific)	0.0908	1	-0.716	1.57	1.36
in vitro model: dormancy (butyrate + nitrate, low O2), time point: constant (~7 days, model-specific)	0.0988	0.938	0.038	-0.678	-1.51
in vitro model: dormancy (butyrate + nitrate, low O2), time point: terminal (~4-5 doublings, model-specific)	0.0571	0.993	-0.337	-0.503	-0.477
in vitro model: standard 7H9 glycerol, time point: constant = terminal	0.11	0.93	0.0153	-0.349	-0.0486
in vitro model: valerate, time point: constant (~7 days, model-specific)	0.0751	0.857	0.0268	0.706	–
in vitro model: valerate, time point: terminal (~4-5 doublings, model-specific)	0.0551	0.929	0.0406	0.736	0.763

CC(C)/N=c1\cc2n(-c3ccc(Cl)cc3)c3ccccc3nc-2cc1Nc1ccc(Cl)cc1 [clofazimine] + O=[N+]([O-])c1cn2c(n1)OC[C@@H](OCc1ccc(OC(F)(F)F)cc1)C2 [pretomanid] + NC(=O)c1cnccn1 [pyrazinamide]
Details	AUC25, [1]	Einf, [5]	GRinf, [3]	total FIC50, [2]	total FIC90, [4]
in vitro model: acidic pH 5.7, time point: constant (~7 days, model-specific)	0.116	0.799	-0.189	-0.0503	–
in vitro model: acidic pH 5.7, time point: terminal (~4-5 doublings, model-specific)	0.0855	0.963	-0.286	-0.211	-0.383
in vitro model: intracellular J774, time point: constant = terminal	–	1	-0.589	–	0.069

Details	AUC25, [1]	Einf, [5]	GRinf, [3]	total FIC50, [2]	total FIC90, [4]
in vitro model: butyrate, time point: constant (~7 days, model-specific)	0.117	0.927	-0.101	-0.205	1.93
in vitro model: butyrate, time point: terminal (~4-5 doublings, model-specific)	0.0918	0.967	-0.0731	-0.348	0.119
in vitro model: cholesterol 0.05 mM, time point: constant (~7 days, model-specific)	0.136	0.671	-0.153	–	–
in vitro model: cholesterol 0.05 mM, time point: terminal (~4-5 doublings, model-specific)	0.108	0.917	-0.206	1.04	–
in vitro model: cholesterol-high 0.2 mM, time point: constant (~7 days, model-specific)	0.0983	0.866	-0.131	0.247	–
in vitro model: cholesterol-high 0.2 mM, time point: terminal (~4-5 doublings, model-specific)	0.0869	0.997	-0.572	0.565	0.223
in vitro model: dormancy (butyrate + nitrate, low O2), time point: constant (~7 days, model-specific)	0.0942	0.933	0.139	-1.02	-2
in vitro model: dormancy (butyrate + nitrate, low O2), time point: terminal (~4-5 doublings, model-specific)	0.0486	0.989	-0.2	-0.553	-0.326
in vitro model: standard 7H9 glycerol, time point: constant = terminal	0.128	0.947	-0.335	-0.2	–
in vitro model: valerate, time point: constant (~7 days, model-specific)	0.125	0.874	-0.0963	0.359	–
in vitro model: valerate, time point: terminal (~4-5 doublings, model-specific)	0.0562	0.928	0.0185	0.629	1.17

From the supplement of paper PMC8617591
